# According to PubChem BioAssay AID2305 (GlaxoSmithKline (GSK), 2010):
# Test system: P. falciparum 3D7 growth, pLDH absorbance
# Test: P. falciparum 3D7 growth inhibition, dose response, strain 3D7 (AID 2305)
row,SMILES,IC50 [nM]
1,O=C(/C=C/c1ccc(Cl)c(Cl)c1)NCCCCCN1CC[C@H](c2c[nH]c3ccccc23)[C@H](O)C1,820
2,COc1ccc(CNc2nccc3ccc(-c4ccc(N)nc4)cc23)cc1,980
3,CC(C)CCn1c(Sc2ccc(C#N)c([N+](=O)[O-])c2)nnc1-c1ccccc1Cl,1030
4,O=C(/C=C/c1ccc(Cl)c(Cl)c1)N1CCC(CCN2CCC(c3c[nH]c4cnccc34)CC2)CC1,120
5,O=c1nc(C=Cc2ccc(Br)cc2)oc2ccccc12,1050
6,Cc1ccc(NC(=O)Nc2cccc(Cl)c2)cc1-c1ccc(C(=O)Nc2ccncc2)cc1,740
7,CC(=O)Nc1ccc(Nc2c3ccccc3nc3ccccc23)cc1,1020
8,CCN1CCC(N(Cc2ccc(-c3ccc(C(F)(F)F)cc3)cc2)C(=O)Cn2nc(C)c(=O)cc2SCc2ccc(F)cc2)CC1,1010
9,Cn1nccc1C(=O)NCCNCc1cccc(-c2ccc(-c3nc4ccccc4[nH]3)s2)c1,300
10,Cc1ncc([N+](=O)[O-])n1CCOC(=O)NC(Nc1ccc(Br)cc1)C(Cl)(Cl)Cl (stereo not given),960
11,COc1cc2c(Nc3cccc(NC(=O)c4ccccc4)c3)ncnc2cc1OCCCN1CCOCC1,150
12,CC(C)N1CCN(C(CN2CCN(CCCOc3ccccc3-c3ccccc3)CC2)c2ccc(F)cc2)CC1 (stereo not given),790
13,COc1cc(Cc2cnc(N)nc2N)cc(OCCCCc2ccc([N+](=O)[O-])cc2)c1OC,990
14,COc1ccc(C(=O)N[C@@H](CC(C)C)C(=O)N[C@H](/C=N/NC(=O)c2ccccc2)CCc2ccccc2)cc1OCCN1CCOCC1,170
15,CC(C)C[C@H](NC(=O)c1ccc(F)cc1)C(=O)N[C@H](/C=N/NC(=O)c1ccccc1)CCc1ccccc1,810
16,CC(C)(Oc1c(C2CCN(CCCCNC(=O)c3ccc(-c4ccc(Cl)cc4)cc3)CC2)ccc2c1CCCC2)C(N)=O,1090
17,O=S(=O)(NCCN1CCCC1)c1ccc(-c2ccc(CNCc3ccccc3)cc2)s1,850
18,CC(C)(C)c1ccc(N2C(N)=NC(N)=NC2(C)C)cc1Cl,10
19,C=CCNC(CCCCC)c1ccc(OCCOc2ccc(C(CCCCC)NCC=C)cc2)cc1 (stereo not given),570
20,COc1ccc2nccc([C@@H](O)CN3CCC(NCc4ccc5c(c4)NC(=O)C(C)S5)CC3)c2c1 (stereo not given in full),200
21,O=C(Nc1ccc(C(F)(F)F)cc1)c1ccc(NCCCN2CCCCCC2)c([N+](=O)[O-])c1,320
22,COc1ccc([C@@]23Oc4cc(OC)cc(OC)c4[C@]2(O)C2(CC3c3ccccc3)SCCCS2)cc1 (stereo not given in full),120
23,CCN(CCNC(=O)C1CCN(c2cc(-c3cccc(C)c3)ncn2)CC1)Cc1ccccc1,170
24,Cc1cccc2[nH]c(-c3ccc(-c4cccc(NC(=O)NCc5ccc(F)cc5)c4)cc3)nc12,150

row,SMILES,IC50 [nM]
1,Fc1cc(Cl)ccc1Nc1ccnc2cc(-c3ccc(CN4CCOCC4)o3)ccc12,640
2,N#Cc1ccc(-c2ccc(C(=O)NCCCCN3CCC(c4ccncc4)CC3)cc2)cc1,810
3,COc1ccc2nccc([C@@H](O)CN3CCC(NC(=O)/C=C/c4ccc5ccccc5n4)CC3)c2c1,990
4,CCCC(CNC(=O)c1cc2c(Cl)cc(Cl)cc2[nH]1)CNc1cc(=O)c2ccccc2[nH]1 (stereo not given),900
5,CC(C)(C)OC(=O)N1CCC(C2CCN(C(=O)OC(C)(C)C)CC2)CC1,1160
6,CCCCCCCCNCC(O)c1cc(-c2ccc(Cl)cc2)nc2cc(C)ccc12 (stereo not given),80
7,CN1CCC(NCc2cccc(-c3cccc(-c4nc5ccc(C(F)(F)F)cc5[nH]4)c3)c2)CC1,140
8,O=S(=O)(c1cc(Cl)sc1Cl)N(CCC(O)(C(F)(F)F)C(F)(F)F)Cc1cccc(O)c1,740
9,CC1CN(Cc2cccc(-c3ccc(-c4nc5ccccc5[nH]4)cc3)c2)CC(C)O1 (stereo not given),860
10,CCc1c(CCNCCc2cccc(CCNCCc3ccc(OC)c(OC)c3CC)c2)ccc(OC)c1OC,360
11,COc1ccc(OC)c2c1C[C@@H]1NC[C@H]2c2c(OC)ccc(OC)c21,970
12,Cn1c(=N)n(CC(=O)OCc2ccc(OCc3ccccc3)cc2)c2ccccc21,80
13,COc1ccc2nccc(NN=Cc3cccc(C)n3)c2c1,760
14,Oc1ccc2c(c1CNC1CCCCC1)CCCC2,940
15,O=C(/C=C/c1ccc(Cl)c(Cl)c1)NCCCCCN1CCC(NC(=O)Nc2ccc(OC(F)F)cc2)CC1,750
16,O=C(c1cc(-c2cccs2)[nH]n1)N1CCN(S(=O)(=O)c2ccc(Br)cc2)CC1,360
17,O=C(Nc1cccc(-c2cc(-c3c(Cl)cccc3Cl)no2)c1)c1cnc2ccccc2c1,1100
18,Fc1ccc2ncc(Cl)c(CCN3CCC(NCc4cc5c(cn4)OCCO5)CC3)c2c1,880
19,CCOc1ccc2c(NN=Cc3cccc([N+](=O)[O-])c3)cc(C)nc2c1,220
20,COc1ccc2nccc([C@@H](O)CN3CCC(NCc4ccc5nnsc5c4)CC3)c2c1,710
21,Cc1[nH]cnc1-c1cccc(NC(=O)c2cc3ccccc3s2)c1,210
22,COc1cccc(NC(=O)c2ccc(NCCCN3CC(C)CC(C)C3)c([N+](=O)[O-])c2)c1 (stereo not given),720
23,Cc1cc(Nc2c(C(N)=O)cnc3cc(-c4ccoc4)ccc23)ccc1N1CCN(C)CC1,800
24,COc1ccc(N2CCN(CCCC/C=C/c3ccc(NC(=O)c4cc(Cl)cc(Cl)c4)cc3)CC2)c(OC)c1,660

row,SMILES,IC50 [nM]
1,Cc1noc(C)c1-c1cccc(CNCc2cccc(-c3cccc(-c4nc5ccc(F)cc5[nH]4)c3)c2)c1,180
2,COc1cc(CNc2ncc(-c3ccsc3)c(-c3nccs3)n2)cc(OC)c1,130
3,O=C(Nc1nc2ccc(Cl)cc2s1)c1csnn1,790
4,CCN(C)CCCn1c(N(C)C)nc2cc(-n3cnc4cc(-c5ccc(Cl)cc5)sc4c3=O)ccc21,1090
5,O=C(/C=C/c1ccc(-c2nc3cc(F)c(F)cc3[nH]2)cc1)NCc1ccc(Cl)c(Cl)c1,940
6,COc1ccc2nccc([C@@H](O)CN3CCC(NCc4cn5cc(F)ccc5n4)CC3)c2c1,780
7,CS(=O)(=O)Cc1ccc(Nc2nccc(-c3c(-c4cccc(NC(=O)C5CCCCC5)c4)nn4ncccc34)n2)cc1,200
8,CC1CCC2(CC1)N=C(N)N=C(N)N2OCc1cc2ccccc2c2ccccc12 (stereo not given),240
9,CCc1c[nH]c2c(N3CCCCC3=O)cc(C(=O)N[C@@H](Cc3ccccc3)[C@H](O)CNCc3cccc(OC)c3)cc12,170
10,CCCCCc1ccc(N2C(N)=NC(N)=NC2(C)C)cc1,130
11,N#Cc1cccc(NC(=O)Nc2cccc(-c3cccc(-c4nc5ccc(F)cc5[nH]4)c3)c2)c1,230
12,CN(C)CCNCc1cccc(-c2ccc3c(Nc4cc(O)c(Cl)cc4F)ccnc3c2)c1,550
13,Cc1ccc2[nH]c(-c3ccc(/C=C/C(=O)NC4CCN(Cc5ccccc5)CC4)cc3)nc2c1C,630
14,COc1cc(NCCCNCc2cn(S(=O)(=O)c3ccccc3)c3ccccc23)nc2ccccc12,390
15,CN(c1ccc(NC(=O)CCOc2ccccc2)cc1)C1CCN(Cc2cccc(O)c2)CC1,1320
16,CCNc1cc(C(=O)N[C@@H](Cc2ccc(F)c(F)c2)[C@H](O)CNC2CCCCC2)cc(N2CCCCS2(=O)=O)c1,120
17,Cc1cc(Nc2ccc(C(C)(C)C)cc2)c2[nH]ncc2n1,1160
18,Cc1[nH]c(C)c(-c2ccc(S(=O)(=O)c3ccc(Cl)cc3)cc2)c(=O)c1Br,40
19,CC(C)c1cc(Oc2c(I)cc(CCCc3ncc[nH]3)cc2I)ccc1O,1120
20,O=C(Nc1ccccc1)c1ccc(N2CCC(COc3cccc(C(F)(F)F)c3)CC2)nc1,300
21,CCCCN(CCCC)CCCCCCNc1c2ccccc2nc2ccccc12,780
22,O=C(Nc1ccc(Cl)cc1)Nc1nc2ccc([N+](=O)[O-])cc2[nH]1,800
23,Cc1nccc2c(NC(=O)N[C@@H]3CCN(c4ncc(C(F)(F)F)cc4Br)C3)cccc12,360
24,CS(=O)(=O)NCCCNCc1ccc(-c2cccc(-c3nc4ccc(C(F)(F)F)cc4[nH]3)c2)cc1,850

row,SMILES,IC50 [nM]
1,COc1ccccc1C1CCN(C2CCC(NC(=O)/C=C/c3ccc(OC(F)(F)F)cc3)CC2)CC1 (stereo not given),1350
2,COc1ccc(Nc2ncc3c(-c4cccc(NC(=O)Cc5cccnc5)c4)c[nH]c3n2)cc1OC,720
3,CC(Cc1ccc(OCCCCOc2ccccc2)cc1)NCCc1ccc(Oc2ccccc2)cc1 (stereo not given),810
4,O=S(=O)(NCCN1CCCC1)c1ccc(-c2ccc(CNC3Cc4ccccc4C3)cc2)cc1,660
5,CC1(C)N=C(N)NC(Nc2ccc(F)c(F)c2)=N1,50
6,Cc1ccc(Cn2ncc(N3CCC(N)CC3)c(Cl)c2=O)cc1NC(=O)Nc1ccc(-c2ccccc2)cc1,920
7,CC1(C)CCCN(C(=O)c2cccc(-n3nc(-c4ccc(Cl)cc4)cc3N)c2)C1,710
8,Cc1cccc2c(C(=O)NC3CCN(Cc4ccccc4)CC3)cc(-c3cccnc3)nc12,1380
9,CCCCc1cc(NCC)nc(Nc2ccc(F)cc2)n1,790
10,CCOc1cc(C)ccc1NC1CCN(CCCCNC(=O)c2ccc(NC(=O)c3ccc(Cl)cc3)cc2)CC1,710
11,COc1ccc(Nc2ncc3c(-c4cccc(NC(=O)Cc5cccc(F)c5)c4)c[nH]c3n2)cc1OC,570
12,CC(C)(C)NS(=O)(=O)c1cc(C(=O)N2CCC(CCN3CCC(O)(c4cccc(C(F)(F)F)c4)CC3)(c3cccc(F)c3)CC2)c(Cl)cc1F,860
13,Cc1cccc(CN2CCC(CNC(=O)c3cc4c(-c5ccccc5F)nn(C)c4s3)CC2)c1,1090
14,COc1ccc(N2CCN(c3nc(N)c4cc(OC)c(OC)cc4n3)CC2C)cc1 (stereo not given),1420
15,CCCCN(Cc1cccc(C(F)(F)F)c1Cl)c1ccc(C(O)(C(F)(F)F)C(F)(F)F)cc1,960
16,Cc1[nH]nc2cc(Nc3nccc(Nc4ccc(Oc5ccccc5)cc4)n3)ccc12,600
17,CC(C)(C)N1CCC(N(Cc2ccc(-c3ccc(C(F)(F)F)cc3)cc2)C(=O)Cn2c(CCc3cccc(F)c3F)cc(=O)c3ccccc32)CC1,790
18,CCCN(CCC)C(=O)c1cc(C(=O)N[C@@H](Cc2ccccc2)[C@H](O)CNCc2cccc(OC)c2)cc(N2CCCCS2(=O)=O)c1,550
19,O=C(NC1CCCCC1)N(CCCn1ccnc1)Cc1csc(-c2ccc(CNCc3ccccc3)cc2)n1,840
20,Cn1cc(CCNc2ccnc(N3CCC(c4ncc[nH]4)CC3)n2)c2ccccc21,1200
21,CCCCNC(=O)[C@@H]1CCCN1C(=O)c1ccc(O)c(-c2ccc(Cl)c(Cl)c2)c1,750
22,Cc1cccc2[nH]c(-c3ccc(-c4ccc(NC(=O)NCc5cccc(F)c5)cc4)cc3)nc12,1300
23,CCCCN(CCCC)C(=N)c1cccc2c1CCCC2,1560
